How the values were obtained:
[1] = tested on: glutamine-dependent asparagine synthetase; assay: Inhibition of glutamine-dependent asparagine synthetase; assay type: biochemical; details: 10 mM compound, incubated for 2 hours
Excerpt: Therefore, the phosphonic acid diester derivative (1) specifically reacts on GGT.

human GGT = target: T1, human GGT (Homo sapiens, UniProt P19440); assay: Second-order rate constant kon of human GGT inactivation (continuous or discontinuous assay); assay type: biochemical
T1 construct: purchased Asahi Kasei Co., Ltd. HC-GTP (lot 603AA)
T1 sequence (P19440 1-380 limits assumed): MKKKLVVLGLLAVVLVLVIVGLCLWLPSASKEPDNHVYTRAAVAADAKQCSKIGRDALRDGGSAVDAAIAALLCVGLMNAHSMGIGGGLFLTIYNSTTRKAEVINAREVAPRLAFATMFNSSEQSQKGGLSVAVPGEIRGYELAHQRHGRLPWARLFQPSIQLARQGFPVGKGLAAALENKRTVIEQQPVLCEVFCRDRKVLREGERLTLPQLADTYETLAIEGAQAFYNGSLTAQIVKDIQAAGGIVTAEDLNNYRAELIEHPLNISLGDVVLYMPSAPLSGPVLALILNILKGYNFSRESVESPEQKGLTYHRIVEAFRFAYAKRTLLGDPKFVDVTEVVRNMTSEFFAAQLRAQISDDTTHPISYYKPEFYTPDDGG
T1 sequence (P19440 381-569 limits assumed): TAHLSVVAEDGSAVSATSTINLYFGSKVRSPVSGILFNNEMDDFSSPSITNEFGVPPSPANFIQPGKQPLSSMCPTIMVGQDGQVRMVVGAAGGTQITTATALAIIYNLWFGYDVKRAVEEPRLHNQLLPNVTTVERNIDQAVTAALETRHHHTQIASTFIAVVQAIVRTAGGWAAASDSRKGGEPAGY
Excerpt: (§1) Purified enzyme of E-coli GGT and crude enzyme of human GGT were employed as GGT samples for an inhibition experiment. The enzyme whose physicochemical properties are described in the Document (Hideyuki Suzuki, Hidehiko Kumagai, Tatsurokukro Tochikura “gamma-Glutamyltranspeptidase from Escherichia coli K-12: Purification and Properties” Journal of Bacteriology, December 1986, Vol. 168, No. 3, p. 1325-1331) was used as a purified enzyme of E-coli GGT. Enzyme [HC-GTP (product number), 603AA (lot number)] manufactured by Asahi Kasei Co., Ltd. was used as a crude enzyme of human GGT. The crude enzyme of human GGT contained a large amount of bovine serum albumin (BSA) to stabilize the enzyme, and the GGT concentration was 1% or lower.
In the hydrolytic assay of human GGT, the measurement was carried out in the same manner as that in the hydrolytic assay of E-coli GGT, except that the substrate concentration was changed to […] and therefore, the explanation of the common portions was omitted.
(§2) Next, a second-order rate constant for enzyme inactivation kon was measured by either a continuous assay or a discontinuous assay. Both of the continuous and discontinuous assay for measuring inhibitory activity to GGT were carried out under a pseudo-first-order reaction condition.
(§3) In the continuous assay, while the temperature was kept at 25° C., the 100 mM succinic acid-sodium hydroxide buffer solutions (pH 5.5) containing an inhibitor in various concentrations and the substrate were preincubated for equilibrium. Herein, 0.2 μM of the substrate was used for the case of E-coli GGT and 0.4 μM of the substrate was used for the case of human GGT. Thereafter, the enzyme solution of the E-coli GGT was added in a manner that the final concentration became 0.04 nM and also the human GGT crude enzyme solution was added in a manner that the final concentration became 5 μg/mL. Accordingly, the reaction was started and the release of AMC (increase of the fluorescence intensity) was continuously traced for 10 minutes.
(§4) The fluorescence intensity data obtained from the respective curves was applied to the following pseudo-first-order rate equation (2) and the observed pseudo-first-order rate constant for enzyme inactivation (kobs) was calculated by nonlinear regression analysis [Stein, R. L. et al. Biochemistry 26, 2682-2689 (1987)].
(§5) [Equation 2] [P]=[P]∞[1−exp(−kobst)] (2)
(§6) When the kobs was plotted against to the inhibitor concentration ([I]), a linear relation was obtained until the maximum extent of the experimentally possible inhibitor concentration. Therefore, the second-order rate constant for enzyme inactivation kon was calculated using the following equation (3) deduced from the kinetic mechanism.
(§7) [drawing 37] [Equation 3] kobs=kon[I]/(1+[S]/Km) (3)
(§8) Herein, S denotes 7-(γ-L-glutamylamino)-4-methylcoumarin. The substrate concentration [S] for E-coli GGT is 0.2 μM and the Km value is 0.2 μM. […] The kinetic data was obtained by nonlinear regression analysis using Kaleida graph, a program produced by Synergy Software.
Further, in the discontinuous assay, an inhibitor in various concentrations was dissolved in 100 mM succinic acid-sodium hydroxide buffer solution (pH 5.5) and the enzyme solution was added to the resulting buffer solutions. Herein, in the case of E-coli GGT, the enzyme solution was added in a manner that the final concentration became 0.4 nM and also the human GGT crude enzyme solution was added in a manner that the final concentration became 0.5 mg/mL. Accordingly, the reaction of the inhibitor and each GGT was conducted at 25° C. An aliquot (10 μL) of each of the reaction solutions were sampled at every specified time to measure the remaining enzyme activity by the above-mentioned enzyme activation method. The remaining enzyme activity at every time was analyzed by nonlinear regression using the pseudo-first-order rate equation (4) of enzyme inactivation to calculate the value of kobs.
[Equation 4] αt/α0=exp(−kobst) (4) […]

E-coli GGT = target: T2, E-coli GGT (Escherichia coli, UniProt P18956); assay: Second-order rate constant kon of E-coli GGT inactivation (continuous or discontinuous assay); assay type: biochemical, Escherichia coli K-12; details: second-order rate constant for enzyme inactivation; pH 5.5, 25° C.
T2 construct: was used as a purified enzyme of E-coli GGT; made in house
T2 sequence (P18956 26-390 limits assumed): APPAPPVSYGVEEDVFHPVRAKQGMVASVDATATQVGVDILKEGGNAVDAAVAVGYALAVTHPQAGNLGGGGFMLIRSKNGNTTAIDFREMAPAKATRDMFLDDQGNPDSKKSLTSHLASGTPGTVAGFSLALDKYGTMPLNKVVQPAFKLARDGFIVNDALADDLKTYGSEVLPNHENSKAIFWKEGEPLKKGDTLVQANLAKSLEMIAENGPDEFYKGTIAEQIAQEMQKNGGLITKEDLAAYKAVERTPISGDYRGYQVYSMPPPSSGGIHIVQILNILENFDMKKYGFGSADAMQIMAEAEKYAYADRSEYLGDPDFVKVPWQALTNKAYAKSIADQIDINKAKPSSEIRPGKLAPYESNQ
T2 sequence (P18956 391-580 limits assumed): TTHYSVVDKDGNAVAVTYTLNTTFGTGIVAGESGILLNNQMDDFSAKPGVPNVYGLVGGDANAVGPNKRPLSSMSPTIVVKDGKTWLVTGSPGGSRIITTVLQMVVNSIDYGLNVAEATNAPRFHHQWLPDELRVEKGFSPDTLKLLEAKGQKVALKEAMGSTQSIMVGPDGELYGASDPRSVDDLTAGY
Excerpt: as §1
In the hydrolytic assay of E. coli GGT, 10 μL of a […] enzyme solution was added to a 100 mM succinic acid-sodium hydroxide buffer solution (pH 5.5) in a total volume of 1 mL containing 100 μL of 2 μM substrate aqueous solution. The product, 7-amino-4-methylcoumarin (AMC), released along with the enzyme reaction was traced continuously at 25° C. using a fluorospectrophotometer F-2000 manufactured by Hitachi Ltd. (excitation wavelength: 350 nm, emission wavelength: 440 nm). The AMC concentration was separately measured by forming a calibration curve showing the relation of the fluorescence intensity (F) and the concentration (C) using standard solutions and was calculated from the relational expression (1) of the fluorescence intensity alteration (ΔF) and concentration alteration (ΔC).
as §2, §3, §4, §5, §6, §7, §8
Further, in the discontinuous assay, an inhibitor in various concentrations was dissolved in 100 mM succinic acid-sodium hydroxide buffer solution (pH 5.5) and the enzyme solution was added to the resulting buffer solutions. […]

[2] = Chemical stability: hydrolysis ratio after storage in water at room temperature; assay type: physicochemical; details: stored in water at room temperature for 12 hours
Protocol: Herein, the hydrolysis ratios of the reactive compounds of Examples 1 to 11 were measured after the respective compounds were stored in water at room temperature. In this connection, the compounds other than the compound of Example 10 were stored in water for 12 hours and the compound of Example 10 was stored in water for 112 hours.

COP(=O)(CCC(N)C(=O)O)Oc1cccc(CC(=O)O)c1 (stereo not drawn) [Example 11, 2-amino-4-{[3-(carboxymethyl)phenyl](methyl)phosphono}butanoic Acid]
inhibition of the function of glutamine-dependent asparagine synthetase [1]: did not inhibit
plot of log kon (human GGT) against pKa of aryl group, FIG. 4 (human GGT; position relative to the straight line): deviate upward
kon of human GGT inactivation relative to the compound of Example 12 (human GGT; ratio of kon 51 to kon 0.33): about 155 times
kon Human GGT (human GGT; second-order rate constant for enzyme inactivation, pH 5.5, 25° C.): 51 M^−1S^−1
kon E-coli GGT (E-coli GGT): 150 M^−1S^−1
Hydrolysis ratio (%) [2]: 0%
